PubChem BioAssay AID200 (DTP/NCI, 2004)
“And” between values parts separate entries of the source, which are not always exact repeats. Equal entries are not always repeated. Toxic doses and inconclusive results are not listed. Where a SMILES comes first, the peptide text is derived from it. The star is where a group is joined. Cbz = O=C(OCc1ccccc1)*; Bn = c1ccc(C*)cc1

Test system: B6C3F1 mice, B16 melanoma ip, median survival T/C
Assay: NCI In Vivo Anticancer Drug Screen. Data for tumor model B16 Melanoma (intraperitoneal) in B6C3F1 mice
Conditions: endpoint: median survival time, schedule: Q01DX009 (ip), higher = longer survival
Outline: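 Transplantable tumor in mice; treated vs vehicle control groups; survival or tumor size measured; value = T/C ratio.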

[1] = dose: 25.0 mg/kg/injection, vehicle: Klucel (hydroxypropylcellulose) (HPC)
[2] = dose: 50.0 mg/kg/injection, vehicle: Klucel (hydroxypropylcellulose) (HPC)
[3] = dose: 100.0 mg/kg/injection, vehicle: Klucel (hydroxypropylcellulose) (HPC)
[4] = dose: 100.0 mg/kg/injection, vehicle: saline with Tween-80
[5] = dose: 200.0 mg/kg/injection, vehicle: saline with Tween-80
[6] = dose: 400.0 mg/kg/injection, vehicle: saline with Tween-80
[7] = dose: 6.25 mg/kg/injection, vehicle: saline with Tween-80
[8] = dose: 12.5 mg/kg/injection, vehicle: saline with Tween-80
[9] = dose: 25.0 mg/kg/injection, vehicle: saline with Tween-80
[10] = dose: 50.0 mg/kg/injection, vehicle: saline with Tween-80
[11] = dose: 12.5 mg/kg/injection, vehicle: saline
[12] = dose: 25.0 mg/kg/injection, vehicle: saline

Question: `O=c1[nH]cnc2n[nH]nc12` was tested. Which T/C (dose: 12.5 mg/kg/injection, vehicle: Klucel (hydroxypropylcellulose) (HPC)) did it give?
Answer: 107 % of control

Question: What about the T/C [1] of the same compound?
Answer: 97 % of control

Question: And the T/C [2]?
Answer: 92 % of control

Question: What about the T/C [3] of the same compound?
Answer: 90 % of control

Question: What about the T/C (dose: 200.0 mg/kg/injection, vehicle: Klucel (hydroxypropylcellulose) (HPC)) of the same compound?
Answer: 97 % of control

Question: What about the T/C (dose: 400.0 mg/kg/injection, vehicle: Klucel (hydroxypropylcellulose) (HPC)) of the same compound?
Answer: 90 % of control

Question: What does the source list for `O=C(NC(CSCc1ccccc1)C(=O)NC(Cc1ccc(O)cc1)C(=O)O)OCc1ccccc1` (stereo not given) (Cbz-Cys(Bn)-Tyr-OH; configuration not given here)?
Answer: T/C [4]: 90 % of control; T/C [5]: 101 % of control; T/C [6]: 87 % of control

Question: `Nc1nc(=S)c2ncn(C3OC(COC(=O)c4ccccc4)C(OC(=O)c4ccccc4)C3OC(=O)c3ccccc3)c2[nH]1` (stereo not given) was tested. Which T/C [7] did it give?
Answer: 112 % of control

Question: And the T/C [8]?
Answer: 117 % of control

Question: And the T/C [9]?
Answer: 111 % of control

Question: And the T/C [10]?
Answer: 97 % of control

Question: `O=C1c2ccccc2-c2c(Br)c3ccccc3c(=O)n21` was tested. Which T/C [10] did it give?
Answer: 90 % of control

Question: And the T/C [4]?
Answer: 101 % of control

Question: And the T/C [5]?
Answer: 95 % of control

Question: What about the T/C [6] of the same compound?
Answer: 94 % of control

Question: For `OCCN1CCN(CC/C=C2/c3ccccc3Sc3ccc(Cl)cc32)CC1`, which T/C (dose: 1.56 mg/kg/injection, vehicle: saline) is on record?
Answer: 101 % of control

Question: And the T/C (dose: 3.12 mg/kg/injection, vehicle: saline)?
Answer: 102 % of control

Question: What about the T/C (dose: 6.25 mg/kg/injection, vehicle: saline) of the same compound?
Answer: 103 % of control and 105 % of control

Question: What about the T/C [11] of the same compound?
Answer: 93 % of control and 106 % of control

Question: What about the T/C [12] of the same compound?
Answer: 100 % of control

Question: `Nc1nc2c(C(=O)N3CCCC3)nnn2c2ccccc12` was tested. Which T/C [7] did it give?
Answer: 118 % of control

Question: What about the T/C [8] of the same compound?
Answer: 104 % of control

Question: And the T/C [9]?
Answer: 122 % of control

Question: What about the T/C [10] of the same compound?
Answer: 107 % of control

Question: What about the T/C [4] of the same compound?
Answer: 102 % of control

Question: `CCC1(O)C(=O)OCc2c1cc1n(c2=O)Cc2cc3ccccc3nc2-1` (stereo not given) was tested. Which T/C (dose: 0.75 mg/kg/injection, vehicle: other) did it give?
Answer: 156 % of control

Question: And the T/C (dose: 1.5 mg/kg/injection, vehicle: other)?
Answer: 165 % of control

Question: With `OCC12COCN1COC2` as the compound, how does the T/C [11] read?
Answer: 98 % of control

Question: What about the T/C [12] of the same compound?
Answer: 113 % of control

Question: What about the T/C (dose: 50.0 mg/kg/injection, vehicle: saline) of the same compound?
Answer: 113 % of control and 101 % of control

Question: What about the T/C (dose: 100.0 mg/kg/injection, vehicle: saline) of the same compound?
Answer: 110 % of control and 100 % of control

Question: What about the T/C (dose: 200.0 mg/kg/injection, vehicle: saline) of the same compound?
Answer: 108 % of control and 110 % of control

Question: What about the T/C (dose: 400.0 mg/kg/injection, vehicle: saline) of the same compound?
Answer: 121 % of control and 105 % of control

Question: Which results are given for `CSc1nc(N)cc(NC(=O)CCl)n1`?
Answer: T/C [1]: 102 % of control; T/C [2]: 100 % of control; T/C [3]: 92 % of control

Question: With `O=C1c2cccc(NCCCNCCO)c2C(=O)c2cccc(NCCCNCCO)c21` as the compound, how does the T/C (dose: 6.25 mg/kg/injection, vehicle: acid diluted with saline) read?
Answer: 102 % of control

Question: What about the T/C (dose: 12.5 mg/kg/injection, vehicle: acid diluted with saline) of the same compound?
Answer: 108 % of control

Question: And the T/C (dose: 25.0 mg/kg/injection, vehicle: acid diluted with saline)?
Answer: 154 % of control

Question: With `BrC1CC(Br)c2c1c1c(c3c2C(Br)CC3Br)C(Br)CC1Br` (stereo not given) as the compound, how does the T/C [8] read?
Answer: 108 % of control and 105 % of control

Question: And the T/C [9]?
Answer: 114 % of control and 117 % of control and 123 % of control

Question: And the T/C [10]?
Answer: 114 % of control

Question: What about the T/C [4] of the same compound?
Answer: 118 % of control and 93 % of control

Question: What about the T/C [5] of the same compound?
Answer: 123 % of control

Question: For `C[C@@](O)(/C=C/[C@H]1CC=CC(=O)O1)[C@@H](C[C@@H](O)\C=C/C=C\C=C\CO)OP(=O)(O)O`, which T/C (dose: 3.12 mg/kg/injection, vehicle: other) is on record?
Answer: 98 % of control and 105 % of control

Question: What about the T/C (dose: 6.25 mg/kg/injection, vehicle: other) of the same compound?
Answer: 110 % of control and 102 % of control

Question: And the T/C (dose: 12.5 mg/kg/injection, vehicle: other)?
Answer: 101 % of control and 103 % of control

Question: And the T/C (dose: 25.0 mg/kg/injection, vehicle: other)?
Answer: 99 % of control
